Test results taken from ChEMBL document CHEMBL1135183, “Design and synthesis of C-8 linked pyrrolobenzodiazepine-naphthalimide hybrids as anti-tumour agents” (2002).

System: leukaemia cell line
Assay: Concentration of compound causing 50% lethality in Leukemia cell lines was determined
Type: functional
Conditions: Homo sapiens, read-out: Log LC50 (the source's name) (converted)

**Q.** How did the CC50 turn out when `COc1cc2c(cc1OCCCCCN1C(=O)c3cccc4cccc(c34)C1=O)N=C[C@@H]1CCCN1C2=O` was run?
**A.** 72.4 µM

**Q.** For `COc1cc2c(cc1OCCCCCCCCCCCCCN1C(=O)c3cccc4cccc(c34)C1=O)N=C[C@@H]1CCCN1C2=O`, which CC50 is on record?
**A.** 77.6 µM

**Q.** For `COc1cc2c(cc1OCCCN1C(=O)c3cccc4cccc(c34)C1=O)N=C[C@@H]1CCCN1C2=O`, which CC50 is on record?
**A.** 77.6 µM

**Q.** How did the CC50 turn out when `COc1cc2c(cc1OCCCCCCCN1C(=O)c3cccc4cccc(c34)C1=O)N=C[C@@H]1CCCN1C2=O` was run?
**A.** > 100 µM

**Q.** How did the CC50 turn out when `COc1cc2c(cc1OCCCCCCCCCCCCCCCCCN1C(=O)c3cccc4cccc(c34)C1=O)N=C[C@@H]1CCCN1C2=O` was run?
**A.** 61.7 µM

System: Panel breast (Carcinoma cell lines)
Assay: Concentration of compound causing 50% lethality in Breast cell lines was determined
Type: functional
Conditions: Homo sapiens, read-out: Log LC50 (the source's name) (converted)

**Q.** `COc1cc2c(cc1OCCCCCN1C(=O)c3cccc4cccc(c34)C1=O)N=C[C@@H]1CCCN1C2=O` was tested. Which CC50 did it give?
**A.** 60.3 µM

**Q.** For `COc1cc2c(cc1OCCCCCCCCCCCCCN1C(=O)c3cccc4cccc(c34)C1=O)N=C[C@@H]1CCCN1C2=O`, which CC50 is on record?
**A.** 95.5 µM

**Q.** `COc1cc2c(cc1OCCCN1C(=O)c3cccc4cccc(c34)C1=O)N=C[C@@H]1CCCN1C2=O` was tested. Which CC50 did it give?
**A.** > 100 µM

**Q.** For `COc1cc2c(cc1OCCCCCCCN1C(=O)c3cccc4cccc(c34)C1=O)N=C[C@@H]1CCCN1C2=O`, which CC50 is on record?
**A.** 43.7 µM

**Q.** How did the CC50 turn out when `COc1cc2c(cc1OCCCCCCCCCCCCCCCCCN1C(=O)c3cccc4cccc(c34)C1=O)N=C[C@@H]1CCCN1C2=O` was run?
**A.** 85.1 µM

System: NSCLC
Assay: Concentration of compound causing 50% lethality in Non-small-cell lung cell lines was determined
Type: functional
Conditions: Homo sapiens, read-out: Log LC50 (the source's name) (converted)

**Q.** How did the CC50 turn out when `COc1cc2c(cc1OCCCCCN1C(=O)c3cccc4cccc(c34)C1=O)N=C[C@@H]1CCCN1C2=O` was run?
**A.** 69.2 µM

**Q.** `COc1cc2c(cc1OCCCCCCCCCCCCCN1C(=O)c3cccc4cccc(c34)C1=O)N=C[C@@H]1CCCN1C2=O` was tested. Which CC50 did it give?
**A.** > 100 µM

**Q.** Which CC50 does the source give for `COc1cc2c(cc1OCCCN1C(=O)c3cccc4cccc(c34)C1=O)N=C[C@@H]1CCCN1C2=O` here?
**A.** 89.1 µM

**Q.** How did the CC50 turn out when `COc1cc2c(cc1OCCCCCCCN1C(=O)c3cccc4cccc(c34)C1=O)N=C[C@@H]1CCCN1C2=O` was run?
**A.** 45.7 µM

**Q.** `COc1cc2c(cc1OCCCCCCCCCCCCCCCCCN1C(=O)c3cccc4cccc(c34)C1=O)N=C[C@@H]1CCCN1C2=O` was tested. Which CC50 did it give?
**A.** 83.2 µM

System: Panel melanoma (Carcinoma cell lines)
Assay: Concentration of compound causing 50% lethality in Melanoma cell lines was determined
Type: functional
Conditions: Homo sapiens, read-out: Log LC50 (the source's name) (converted)

**Q.** With `COc1cc2c(cc1OCCCCCN1C(=O)c3cccc4cccc(c34)C1=O)N=C[C@@H]1CCCN1C2=O` as the compound, how does the CC50 read?
**A.** 58.9 µM

**Q.** How did the CC50 turn out when `COc1cc2c(cc1OCCCCCCCCCCCCCN1C(=O)c3cccc4cccc(c34)C1=O)N=C[C@@H]1CCCN1C2=O` was run?
**A.** 81.3 µM

**Q.** `COc1cc2c(cc1OCCCN1C(=O)c3cccc4cccc(c34)C1=O)N=C[C@@H]1CCCN1C2=O` was tested. Which CC50 did it give?
**A.** 97.7 µM

**Q.** How did the CC50 turn out when `COc1cc2c(cc1OCCCCCCCN1C(=O)c3cccc4cccc(c34)C1=O)N=C[C@@H]1CCCN1C2=O` was run?
**A.** 37.2 µM

**Q.** With `COc1cc2c(cc1OCCCCCCCCCCCCCCCCCN1C(=O)c3cccc4cccc(c34)C1=O)N=C[C@@H]1CCCN1C2=O` as the compound, how does the CC50 read?
**A.** 64.6 µM

System: Panel ovarian (Carcinoma cell lines)
Assay: Concentration of compound causing 50% lethality in Ovarian cell lines was determined
Type: functional
Conditions: Homo sapiens, read-out: Log LC50 (the source's name) (converted)

**Q.** With `COc1cc2c(cc1OCCCCCN1C(=O)c3cccc4cccc(c34)C1=O)N=C[C@@H]1CCCN1C2=O` as the compound, how does the CC50 read?
**A.** 81.3 µM

**Q.** With `COc1cc2c(cc1OCCCCCCCCCCCCCN1C(=O)c3cccc4cccc(c34)C1=O)N=C[C@@H]1CCCN1C2=O` as the compound, how does the CC50 read?
**A.** 85.1 µM

**Q.** How did the CC50 turn out when `COc1cc2c(cc1OCCCN1C(=O)c3cccc4cccc(c34)C1=O)N=C[C@@H]1CCCN1C2=O` was run?
**A.** 97.7 µM

**Q.** With `COc1cc2c(cc1OCCCCCCCN1C(=O)c3cccc4cccc(c34)C1=O)N=C[C@@H]1CCCN1C2=O` as the compound, how does the CC50 read?
**A.** 87.1 µM

**Q.** Which CC50 does the source give for `COc1cc2c(cc1OCCCCCCCCCCCCCCCCCN1C(=O)c3cccc4cccc(c34)C1=O)N=C[C@@H]1CCCN1C2=O` here?
**A.** 77.6 µM

System: Panel colon (Carcinoma cell lines)
Assay: Concentration of compound causing 50% lethality in Colon cell lines was determined
Type: functional
Conditions: Homo sapiens

**Q.** With `COc1cc2c(cc1OCCCCCN1C(=O)c3cccc4cccc(c34)C1=O)N=C[C@@H]1CCCN1C2=O` as the compound, how does the LC50 read?
**A.** 45.7 µM

**Q.** For `COc1cc2c(cc1OCCCCCCCCCCCCCN1C(=O)c3cccc4cccc(c34)C1=O)N=C[C@@H]1CCCN1C2=O`, which LC50 is on record?
**A.** 83.2 µM

**Q.** `COc1cc2c(cc1OCCCN1C(=O)c3cccc4cccc(c34)C1=O)N=C[C@@H]1CCCN1C2=O` was tested. Which LC50 did it give?
**A.** 97.7 µM

**Q.** Which LC50 does the source give for `COc1cc2c(cc1OCCCCCCCN1C(=O)c3cccc4cccc(c34)C1=O)N=C[C@@H]1CCCN1C2=O` here?
**A.** 38.9 µM

**Q.** How did the LC50 turn out when `COc1cc2c(cc1OCCCCCCCCCCCCCCCCCN1C(=O)c3cccc4cccc(c34)C1=O)N=C[C@@H]1CCCN1C2=O` was run?
**A.** 75.9 µM

System: Panel CNS (Carcinoma cell lines)
Assay: Concentration of compound causing 50% lethality in CNS cell lines was determined
Type: functional
Conditions: Homo sapiens, read-out: Log LC50 (the source's name) (converted)

**Q.** How did the CC50 turn out when `COc1cc2c(cc1OCCCCCN1C(=O)c3cccc4cccc(c34)C1=O)N=C[C@@H]1CCCN1C2=O` was run?
**A.** 72.4 µM

**Q.** Which CC50 does the source give for `COc1cc2c(cc1OCCCCCCCCCCCCCN1C(=O)c3cccc4cccc(c34)C1=O)N=C[C@@H]1CCCN1C2=O` here?
**A.** 77.6 µM

**Q.** With `COc1cc2c(cc1OCCCN1C(=O)c3cccc4cccc(c34)C1=O)N=C[C@@H]1CCCN1C2=O` as the compound, how does the CC50 read?
**A.** > 100 µM

**Q.** With `COc1cc2c(cc1OCCCCCCCN1C(=O)c3cccc4cccc(c34)C1=O)N=C[C@@H]1CCCN1C2=O` as the compound, how does the CC50 read?
**A.** > 100 µM

**Q.** With `COc1cc2c(cc1OCCCCCCCCCCCCCCCCCN1C(=O)c3cccc4cccc(c34)C1=O)N=C[C@@H]1CCCN1C2=O` as the compound, how does the CC50 read?
**A.** 51.3 µM

System: Panel prostate (Carcinoma cell lines)
Assay: Concentration of compound causing 50% lethality in Prostate cell lines was determined
Type: functional
Conditions: Homo sapiens, read-out: Log LC50 (the source's name) (converted)

**Q.** Which CC50 does the source give for `COc1cc2c(cc1OCCCCCN1C(=O)c3cccc4cccc(c34)C1=O)N=C[C@@H]1CCCN1C2=O` here?
**A.** 61.7 µM

**Q.** Which CC50 does the source give for `COc1cc2c(cc1OCCCCCCCCCCCCCN1C(=O)c3cccc4cccc(c34)C1=O)N=C[C@@H]1CCCN1C2=O` here?
**A.** 93.3 µM

**Q.** How did the CC50 turn out when `COc1cc2c(cc1OCCCN1C(=O)c3cccc4cccc(c34)C1=O)N=C[C@@H]1CCCN1C2=O` was run?
**A.** > 100 µM

**Q.** For `COc1cc2c(cc1OCCCCCCCN1C(=O)c3cccc4cccc(c34)C1=O)N=C[C@@H]1CCCN1C2=O`, which CC50 is on record?
**A.** > 100 µM

**Q.** For `COc1cc2c(cc1OCCCCCCCCCCCCCCCCCN1C(=O)c3cccc4cccc(c34)C1=O)N=C[C@@H]1CCCN1C2=O`, which CC50 is on record?
**A.** 66.1 µM

System: Panel renal (Carcinoma cell lines)
Assay: Concentration of compound causing 50% lethality in Renal cell lines was determined
Type: functional
Conditions: Homo sapiens

**Q.** With `COc1cc2c(cc1OCCCCCN1C(=O)c3cccc4cccc(c34)C1=O)N=C[C@@H]1CCCN1C2=O` as the compound, how does the LC50 (concentration causing 50% cell lethality) read?
**A.** 30.9 µM

**Q.** `COc1cc2c(cc1OCCCCCCCCCCCCCN1C(=O)c3cccc4cccc(c34)C1=O)N=C[C@@H]1CCCN1C2=O` was tested. Which LC50 (concentration causing 50% cell lethality) did it give?
**A.** 95.5 µM

**Q.** With `COc1cc2c(cc1OCCCN1C(=O)c3cccc4cccc(c34)C1=O)N=C[C@@H]1CCCN1C2=O` as the compound, how does the LC50 (concentration causing 50% cell lethality) read?
**A.** 91.2 µM

**Q.** With `COc1cc2c(cc1OCCCCCCCN1C(=O)c3cccc4cccc(c34)C1=O)N=C[C@@H]1CCCN1C2=O` as the compound, how does the LC50 (concentration causing 50% cell lethality) read?
**A.** 93.3 µM

**Q.** How did the LC50 (concentration causing 50% cell lethality) turn out when `COc1cc2c(cc1OCCCCCCCCCCCCCCCCCN1C(=O)c3cccc4cccc(c34)C1=O)N=C[C@@H]1CCCN1C2=O` was run?
**A.** 81.3 µM
